Measured values as given in US12145913B2, “Inhibition of Olig2 activity” (Curtana Pharmaceuticals, Inc., priority 2016, dated 2024).

Test system: GBM8 human glioblastoma cells
Assay: GBM8 viability assay (Cell Titer Glo)
Type: cell-based
Conditions: 72 h, Table 1, 3 days incubation, luminescence
Protocol: Cell culture medium was prepared from a NSA proliferation kit (Neurocult) and NeuroCult supplements (Stemcell Tech Cat. #05751) and treated with 20 μL of 10 μg/mL rh EGF, 10 μL of 10 μg/mL rh bFGF and 10 μL of 0.2% Heparin. In this medium, human glioblastoma cells were cultured in ultra-low attachment tissue culture flasks until 1×10^6 cells ml was achieved (GBM4 and GBM8 are distinct neurosphere cell cultures derived from these human patient tissues). GBM4 and GBM8 cells were dissociated and 10 mL of media containing 4000 human glioblastoma cells per 90 μL were transferred to an ultra-low binding 96-well plate and incubated at 37° C. overnight. On the following day, 10 μL of a 1% DMSO solution of test compound in assay medium was added to wells containing the cell suspension and the mixture incubated at 37° C. for 3 days. At this time, the plate was removed from the incubator and allowed to reach room temperature. After about 30 minutes, 50 μL of Cell Titer Glo solution was added to each well and the plate shaken for 1 minute at low speed. After 10 minutes luminescence was recorded using a Tecan Safire2 reader.
Reduction in luminescence compared to DMSO only control wells was used to determine the percentage inhibition of cell growth. IC50s were calculated using the % inhibition of luminescence for serial dilutions of compounds fitted to a 4-parameter fit within the Prism (San Diego) curve fitting program. Tables 1 (compounds 3-188) and 2 (compounds 190-212) show the GBM4 IC50 and GBM8 IC50 for compounds described herein.

SMILES	IC50
Cc1cc(NCCNS(C)(=O)=O)nc(NC(=O)Nc2ccc3ncccc3c2)n1 [Compound 111, N-(2-((6-methyl-2-(3-(quinolin-6-yl)ureido)pyrimidin-4-yl)amino)ethyl)methanesulfonamide]	< 500 nM
Cc1cc(NCC(C)O)nc(NC(=O)Nc2ccc3ccccc3c2)n1 (stereo not drawn) [Compound 14]	< 500 nM
CNc1cc(C)nc(NC(=O)Nc2ccc3cnccc3c2)n1 [Compound 55]	< 500 nM
Cc1cc(NCCCCN(C)C)nc(NC(=O)Nc2ccc3ccccc3c2)n1 [Compound 17]	< 500 nM
CONc1cc(C)nc(NC(=O)Nc2ccc(OC(F)(F)F)cc2)n1 [Compound 146, 1-(4-(methoxyamino)-6-methylpyrimidin-2-yl)-3-(4-(trifluoromethoxy)phenyl)urea]	500 to 5000 nM
Cc1cc(NCCCN(C)C)nc(NC(=O)Nc2cc3ccccc3cn2)n1 [Compound 89, 1-(4-((3-(dimethylamino)propyl)amino)-6-methylpyrimidin-2-yl)-3-(isoquinolin-3-yl)urea]	5000 to 30000 nM
Cc1cc(NCCN)nc(NC(=O)Nc2ccc3occc3c2)n1 [Compound 82, 1-(4-((2-aminoethyl)amino)-6-methylpyrimidin-2-yl)-3-(benzofuran-5-yl)urea]	< 500 nM
CNCCCCNc1cc(C)nc(NC(=O)Nc2ccc3ccccc3c2)n1 [Compound 33, 1-(4-methyl-6-((4-(methylamino)butyl)amino)pyrimidin-2-yl)-3-(naphthalen-2-yl)urea]	< 500 nM
Cc1cc(NCCN)nc(NC(=O)Nc2cc3ccccc3cn2)n1 [Compound 90, 1-(4-((2-aminoethyl)amino)-6-methylpyrimidin-2-yl)-3-(isoquinolin-3-yl)urea]	500 to 5000 nM
CC(=O)NCCCNc1cc(C)nc(NC(=O)Nc2ccc3ncccc3c2)n1 [Compound 109, N-(3-((6-methyl-2-(3-(quinolin-6-yl)ureido)pyrimidin-4-yl)amino)propyl)acetamide]	500 to 5000 nM
Cc1cc(NCC(F)(F)CO)nc(NC(=O)Nc2ccc3ccccc3c2)n1 [Compound 27, 1-(4-((2,2-difluoro-3-hydroxypropyl)amino)-6-methylpyrimidin-2-yl)-3-(naphthalen-2-yl)urea]	< 500 nM
Cc1cc(NO)nc(NC(=O)Nc2ccc3ccccc3c2)n1 [Compound 45, 1-(4-(hydroxyamino)-6-methylpyrimidin-2-yl)-3-(naphthalen-2-yl)urea]	< 500 nM
Cc1cc(NCCNS(C)(=O)=O)nc(NC(=O)Nc2ccc3ccncc3c2)n1 [Compound 120, N-(2-((2-(3-(isoquinolin-7-yl)ureido)-6-methylpyrimidin-4-yl)amino)ethyl)methanesulfonamide]	< 500 nM
Cc1cc(NCCCN(C)C)nc(NC(=O)Nc2ccc(Oc3ccccc3)cc2)n1 [Compound 133, 1-(4-((3-(dimethylamino)propyl)amino)-6-methylpyrimidin-2-yl)-3-(4-phenoxyphenyl)urea]	< 500 nM
Cc1cc(NCCN)nc(NC(=O)Nc2ccc(OC(F)(F)F)c(Cl)c2)n1 [Compound 150, 1-(4-((2-aminoethyl)amino)-6-methylpyrimidin-2-yl)-3-(3-chloro-4-(trifluoromethoxy)phenyl)urea]	< 500 nM
Cc1cc(NCCCN(C)C)nc(NC(=O)Nc2ccc(-c3ccccc3)cc2)n1 [Compound 125, 1-([1,1′-biphenyl]-4-yl)-3-(4-((3-(dimethylamino)propyl)amino)-6-methylpyrimidin-2-yl)urea]	< 500 nM
Cc1cc(NCCC(=O)N(C)C)nc(NC(=O)Nc2ccc3cnccc3c2)n1 [Compound 76, 3-((2-(3-(isoquinolin-6-yl)ureido)-6-methylpyrimidin-4-yl)amino)-N,N-dimethylpropanamide]	500 to 5000 nM

Same assay, conditions: 72 h, Table 2, 3 days incubation, luminescence

SMILES	IC50
O=C(Nc1ccc(Cl)c(Cl)c1)Nc1nc(NO)cc(C2CC2)n1 [Compound 207, 1-(4-cyclopropyl-6-(hydroxyamino)pyrimidin-2-yl)-3-(3,4-dichlorophenyl)urea]	500 to 5000 nM
